Key:
[1] = molecular target: T1, Epidermal growth factor receptor (Homo sapiens, UniProt P00533); test: Inhibitory concentration against EGF receptor by polyGAT phosphorylation
[2] = molecular target: T1, Epidermal growth factor receptor; test: Inhibitory concentration against EGF receptor by autophosphorylation
[3] = molecular target: T1, Epidermal growth factor receptor; test: Inhibition of polyGAT phosphorylation by EGF receptor

T1 sequence (P00533 whole entry): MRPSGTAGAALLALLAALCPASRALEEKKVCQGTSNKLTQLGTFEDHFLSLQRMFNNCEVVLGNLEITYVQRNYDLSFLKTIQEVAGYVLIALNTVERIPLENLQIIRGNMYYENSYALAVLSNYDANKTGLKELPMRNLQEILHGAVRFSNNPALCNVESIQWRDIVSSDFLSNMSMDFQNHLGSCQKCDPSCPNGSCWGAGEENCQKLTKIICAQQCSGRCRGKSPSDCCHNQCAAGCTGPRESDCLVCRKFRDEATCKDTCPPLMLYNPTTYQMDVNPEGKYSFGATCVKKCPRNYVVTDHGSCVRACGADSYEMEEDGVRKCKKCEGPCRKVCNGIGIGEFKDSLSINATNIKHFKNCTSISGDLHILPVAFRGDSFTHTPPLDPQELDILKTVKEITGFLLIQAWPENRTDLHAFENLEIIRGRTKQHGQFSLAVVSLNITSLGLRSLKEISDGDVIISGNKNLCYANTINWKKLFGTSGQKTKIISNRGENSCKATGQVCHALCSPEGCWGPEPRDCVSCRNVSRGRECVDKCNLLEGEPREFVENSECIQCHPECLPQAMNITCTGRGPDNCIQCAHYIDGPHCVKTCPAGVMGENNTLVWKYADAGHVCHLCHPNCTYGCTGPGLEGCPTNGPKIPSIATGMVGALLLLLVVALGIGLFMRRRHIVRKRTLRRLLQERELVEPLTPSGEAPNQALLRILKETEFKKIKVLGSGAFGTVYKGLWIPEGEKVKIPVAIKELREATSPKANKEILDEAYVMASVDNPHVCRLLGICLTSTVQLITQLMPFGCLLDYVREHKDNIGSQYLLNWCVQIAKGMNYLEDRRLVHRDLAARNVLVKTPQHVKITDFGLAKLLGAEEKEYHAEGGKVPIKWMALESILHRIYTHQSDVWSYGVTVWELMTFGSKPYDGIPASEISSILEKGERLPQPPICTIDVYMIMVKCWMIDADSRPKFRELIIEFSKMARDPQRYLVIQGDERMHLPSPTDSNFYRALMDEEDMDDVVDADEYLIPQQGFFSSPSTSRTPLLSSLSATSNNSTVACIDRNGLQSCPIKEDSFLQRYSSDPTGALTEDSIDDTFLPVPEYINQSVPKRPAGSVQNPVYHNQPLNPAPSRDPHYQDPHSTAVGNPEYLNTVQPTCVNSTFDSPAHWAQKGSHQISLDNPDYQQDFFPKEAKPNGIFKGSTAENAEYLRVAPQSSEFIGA

SMILES | IC50 [1] [µM] | IC50 [2] [µM] | IC50 [3] [µM]
COc1cc(/C=C(\C#N)C(N)=O)cc(CSc2nc3cc(Cl)ccc3s2)c1O | 4.4 | > 83 | –
Cc1cc(C=C(C#N)C#N)cc(O)c1O | 5.6 | 62 | –
COc1cc(C=C(C#N)C#N)cc(CSc2ccccc2C(=O)O)c1O | 36 | 8 | –
COc1cc(/C=C(\C#N)C(N)=O)cc(CSc2ccccn2)c1O | 25 | 3.4 | –
COc1cc(/C=C(\C#N)C(N)=O)cc(CSCc2ccc(Cl)cc2)c1O | 14.8 | 16 | –
COc1cc(C=C(C#N)C#N)cc(C)c1O | 2600 | 87 | –
COc1cc(/C=C(\C#N)C(N)=O)cc(CSCc2ccccc2)c1O | 1.95 | 0.9 | –
N#C/C(=C\c1cc(O)c(O)c(CSc2nc3ccccc3s2)c1)C(N)=O | 6.5 | 3.2 | –
COc1cc(/C=C(\C#N)C(N)=O)cc(CSc2ccc(O)cc2)c1O | 2.5 | 2.5 | –

Next, values leading:

IC50 [1] [µM] | IC50 [2] [µM] | IC50 [3] [µM] | SMILES
5.6 | 22 | – | COc1cc(/C=C(\C#N)C(N)=O)cc(CSc2ccccc2NC(C)=O)c1O
0.75 | 4.5 | – | COc1cc(/C=C(\C#N)C(=O)c2ccc(O)c(O)c2)cc(CSCc2ccccc2)c1O
2.9 | 0.4 | – | COc1cc(/C=C(\C#N)C(N)=O)cc(CSc2ccccc2)c1O
– | > 167 | > 100 | CCOc1ccc2nc(SCc3cc(/C=C(\C#N)C(N)=O)cc(OC)c3O)sc2c1
12.5 | 5.3 | – | COc1cc(/C=C(\C#N)C(N)=O)cc(CSc2nc3ccccc3o2)c1O
37 | 0.71 | – | COc1cc(/C=C(\C#N)C(N)=O)cc(CSc2ccccc2C(=O)O)c1O
96 | 54 | – | COc1cc(C=C(C#N)C#N)cc(CSCC(=O)O)c1O
370 | 6.7 | – | COc1cc(C=C(C#N)C#N)cc(CSc2ccccc2)c1O
2.5 | 1 | – | COc1cc(/C=C(\C#N)C(N)=O)cc(CSCc2ccccc2Cl)c1O
6.6 | 1.7 | – | COc1cc(/C=C(\C#N)C(N)=O)cc(CSc2ccc3ccccc3c2)c1O
75 | 14.5 | – | COc1cc(/C=C(\C#N)C(N)=O)cc(CSc2nc3ccccc3[nH]2)c1O
85 | 23 | – | COc1cc(C=C(C#N)C#N)cc(CS(=O)(=O)c2ccc(C)cc2)c1O
– | – | 125 | COc1cc(/C=C(\C#N)C(N)=O)cc(CSCCC(=O)O)c1O
0.94 | 0.64 | – | N#C/C(=C\c1cc(O)c(O)c(CSCc2ccccc2)c1)C(N)=O
